# Reference: patent publication US6908899B2, “Pro-inflammatory fibrinopeptide” (U.S. Dept. of Veterans Affairs, priority 2001, dated 2005)
# How the values were obtained:
# [1] = test system: synovial cells from patients with osteoarthritis (OA); assay: ICAM-1 ELISA (O.D. 492); assay type: cell-based, human; details: OA line; overnight; IL-1 0.5 ng/ml, GPRP or GPRP-amide 1 mg/ml, fibrinogen receptor peptide 0.1 mg/ml, FPA, FPB 10^−4 M
# [2] = test system: synovial cells; assay: RT-PCR of IL-6 gene expression; assay type: cell-based; details: versus controls
# [3] = test system: foreskin fibroblast cells; assay: In vitro T cell adhesion assay; assay type: cell-based, human; details: Foreskin line, ± SD, triplicate wells
substance,measurement,setting,value
Gly-Pro-Arg-Pro [GPRP],ICAM-1 O.D. 492,[1],0.85 ± .08
same,IL-6 gene expression,[2],significantly more IL-6 gene expression than controls
same,Adherent T cell numbers,[3]; GPRP 0.1 mg/ml overnight,51 ± 3
same,Adherent T cell numbers,[3]; GPRP 1 mg/ml overnight,54 ± 11
